Experiment [1] concerns the target Beta-2 adrenergic receptor (Homo sapiens, UniProt P07550). Nature of the experiment: Agonist activity at Adrenergic beta2 receptor (unknown origin). The class given is functional.
The target in experiment [2] is Nuclear factor NF-kappa-B complex (Homo sapiens, UniProt P19838+Q00653+Q04206). The experiment is described as follows: Inhibition of NF-kappaB (unknown origin). The class given is protein-complex assay.
Experiment [3] in a line: Inhibition of 20s proteasome beta2 (unknown origin) mediated […] activity. Set-up: species or system Homo sapiens.
Experiment [4] can be described thus: Inhibition of 20s proteasome beta1 (unknown origin) mediated […] activity. Set-up: species or system Homo sapiens.
Experiment [5] has as its system Human immunodeficiency virus 2. The experiment is described as follows: Antiviral activity against HIV-2.
Experiment [6] concerns the target Protein smoothened (Mus musculus, UniProt P56726). Nature of the experiment: Antagonist activity at mouse SMO.
The target in experiment [7] is Protein smoothened (Homo sapiens, UniProt Q99835). Nature of the experiment: Antagonist activity at human SMO.

Counter-ions that a name gives are not always drawn.

Sequence of Nuclear factor NF-kappa-B complex (P19838 1-433 limits assumed): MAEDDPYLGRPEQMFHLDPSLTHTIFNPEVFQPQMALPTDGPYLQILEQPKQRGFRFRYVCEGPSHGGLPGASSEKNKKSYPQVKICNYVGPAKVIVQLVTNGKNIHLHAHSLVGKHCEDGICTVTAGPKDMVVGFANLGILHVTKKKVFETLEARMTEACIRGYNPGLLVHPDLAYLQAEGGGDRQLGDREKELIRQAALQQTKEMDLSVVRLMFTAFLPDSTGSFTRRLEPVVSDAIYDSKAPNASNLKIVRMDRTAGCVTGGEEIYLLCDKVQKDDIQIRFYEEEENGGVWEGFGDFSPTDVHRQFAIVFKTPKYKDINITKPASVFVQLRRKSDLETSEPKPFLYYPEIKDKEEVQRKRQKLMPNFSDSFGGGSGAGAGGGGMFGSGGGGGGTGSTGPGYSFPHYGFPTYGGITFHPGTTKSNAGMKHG
Sequence of Nuclear factor NF-kappa-B complex (Q00653 1-454 limits assumed): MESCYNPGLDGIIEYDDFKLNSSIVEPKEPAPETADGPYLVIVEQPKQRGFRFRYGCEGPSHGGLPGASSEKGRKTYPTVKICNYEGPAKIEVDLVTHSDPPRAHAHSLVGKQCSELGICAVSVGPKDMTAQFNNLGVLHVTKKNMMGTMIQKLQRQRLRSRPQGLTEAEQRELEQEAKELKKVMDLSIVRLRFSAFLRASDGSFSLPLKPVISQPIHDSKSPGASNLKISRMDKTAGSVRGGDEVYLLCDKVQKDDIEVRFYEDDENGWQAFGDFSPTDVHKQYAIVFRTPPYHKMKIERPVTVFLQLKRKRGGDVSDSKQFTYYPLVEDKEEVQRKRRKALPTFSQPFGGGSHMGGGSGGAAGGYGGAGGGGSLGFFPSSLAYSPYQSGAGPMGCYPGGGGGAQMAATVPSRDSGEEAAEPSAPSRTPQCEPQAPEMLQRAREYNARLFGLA
Sequence of Nuclear factor NF-kappa-B complex (Q04206 whole entry): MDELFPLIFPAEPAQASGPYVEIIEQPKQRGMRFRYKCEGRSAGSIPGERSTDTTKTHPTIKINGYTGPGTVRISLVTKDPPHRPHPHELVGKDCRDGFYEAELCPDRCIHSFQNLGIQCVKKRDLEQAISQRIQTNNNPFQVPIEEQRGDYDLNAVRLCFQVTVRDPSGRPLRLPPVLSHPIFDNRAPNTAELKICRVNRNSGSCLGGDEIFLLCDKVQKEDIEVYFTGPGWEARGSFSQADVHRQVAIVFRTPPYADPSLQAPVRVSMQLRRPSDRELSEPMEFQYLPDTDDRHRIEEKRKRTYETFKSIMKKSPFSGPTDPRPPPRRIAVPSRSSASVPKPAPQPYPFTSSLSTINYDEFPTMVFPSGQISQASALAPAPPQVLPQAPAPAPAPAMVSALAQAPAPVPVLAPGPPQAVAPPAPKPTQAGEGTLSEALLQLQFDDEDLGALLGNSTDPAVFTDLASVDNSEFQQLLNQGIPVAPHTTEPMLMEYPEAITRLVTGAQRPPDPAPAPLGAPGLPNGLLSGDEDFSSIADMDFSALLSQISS
Sequence of Protein smoothened (Mus musculus, UniProt P56726) (P56726 whole entry): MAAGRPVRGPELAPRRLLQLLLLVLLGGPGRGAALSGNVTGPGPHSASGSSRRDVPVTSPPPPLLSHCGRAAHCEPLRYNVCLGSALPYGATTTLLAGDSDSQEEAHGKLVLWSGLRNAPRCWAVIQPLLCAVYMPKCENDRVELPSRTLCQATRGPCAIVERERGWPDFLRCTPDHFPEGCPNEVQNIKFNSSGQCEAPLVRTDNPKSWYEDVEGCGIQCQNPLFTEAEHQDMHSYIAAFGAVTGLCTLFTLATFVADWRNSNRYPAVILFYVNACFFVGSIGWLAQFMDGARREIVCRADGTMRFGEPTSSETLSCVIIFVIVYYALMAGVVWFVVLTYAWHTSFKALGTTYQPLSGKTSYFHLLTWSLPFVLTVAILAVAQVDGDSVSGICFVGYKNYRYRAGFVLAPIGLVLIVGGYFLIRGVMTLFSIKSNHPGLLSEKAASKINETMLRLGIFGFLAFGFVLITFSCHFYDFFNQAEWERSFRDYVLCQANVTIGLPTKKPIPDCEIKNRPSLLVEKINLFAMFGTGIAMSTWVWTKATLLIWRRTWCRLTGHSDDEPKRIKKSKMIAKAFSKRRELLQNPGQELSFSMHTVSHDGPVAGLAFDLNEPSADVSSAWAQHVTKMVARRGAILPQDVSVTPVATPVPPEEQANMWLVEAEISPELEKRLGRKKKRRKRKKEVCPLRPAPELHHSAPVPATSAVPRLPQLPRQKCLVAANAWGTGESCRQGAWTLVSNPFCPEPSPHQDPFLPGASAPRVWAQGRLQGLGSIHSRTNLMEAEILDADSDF
Sequence of Beta-2 adrenergic receptor (P07550 whole entry): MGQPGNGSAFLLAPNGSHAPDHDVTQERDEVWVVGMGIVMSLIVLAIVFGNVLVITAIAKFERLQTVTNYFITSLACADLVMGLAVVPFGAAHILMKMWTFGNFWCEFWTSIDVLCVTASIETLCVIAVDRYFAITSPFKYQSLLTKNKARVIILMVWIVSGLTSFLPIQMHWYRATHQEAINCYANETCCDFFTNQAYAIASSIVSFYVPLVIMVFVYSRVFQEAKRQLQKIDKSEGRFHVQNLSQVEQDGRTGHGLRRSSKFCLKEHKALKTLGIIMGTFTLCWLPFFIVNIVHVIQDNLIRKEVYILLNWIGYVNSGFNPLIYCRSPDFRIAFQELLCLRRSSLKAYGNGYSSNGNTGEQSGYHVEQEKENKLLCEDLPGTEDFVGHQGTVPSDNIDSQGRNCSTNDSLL
Sequence of Protein smoothened (Homo sapiens, UniProt Q99835) (Q99835 whole entry): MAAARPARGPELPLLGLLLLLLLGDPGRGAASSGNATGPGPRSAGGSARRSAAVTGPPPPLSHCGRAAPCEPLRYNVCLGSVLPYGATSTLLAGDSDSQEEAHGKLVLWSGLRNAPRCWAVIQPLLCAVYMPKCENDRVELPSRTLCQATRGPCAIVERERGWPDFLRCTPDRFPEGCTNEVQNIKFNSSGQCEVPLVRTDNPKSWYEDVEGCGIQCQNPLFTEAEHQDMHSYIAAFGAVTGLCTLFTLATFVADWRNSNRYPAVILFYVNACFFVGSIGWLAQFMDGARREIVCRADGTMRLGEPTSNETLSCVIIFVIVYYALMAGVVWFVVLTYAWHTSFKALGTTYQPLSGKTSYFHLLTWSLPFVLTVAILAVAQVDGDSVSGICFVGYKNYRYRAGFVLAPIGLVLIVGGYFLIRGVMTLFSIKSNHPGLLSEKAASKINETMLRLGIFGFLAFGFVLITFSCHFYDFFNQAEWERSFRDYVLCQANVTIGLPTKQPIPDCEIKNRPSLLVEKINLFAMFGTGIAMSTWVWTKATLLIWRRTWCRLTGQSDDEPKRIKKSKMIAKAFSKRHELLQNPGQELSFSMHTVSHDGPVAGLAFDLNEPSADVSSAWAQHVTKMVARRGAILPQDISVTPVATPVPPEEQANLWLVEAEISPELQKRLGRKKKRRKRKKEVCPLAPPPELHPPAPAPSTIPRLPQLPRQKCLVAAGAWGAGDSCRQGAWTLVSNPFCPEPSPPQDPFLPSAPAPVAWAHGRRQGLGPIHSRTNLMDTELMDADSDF

On to `C[C@@H]1C[C@H]2[C@@H]3CCC4=CC(=O)C=C[C@]4(C)[C@@]3(F)[C@@H](O)C[C@]2(C)[C@@]1(O)C(=O)CO` [DEXAMETHASONE], for which the midpoint of the response in experiment [1], the EC50, lay at 2.2 nM. Moreover, in experiment [2], the IC50 came out at 0.5 nM.

On to `CC(C)C[C@H](NC(=O)CNC(=O)c1cc(Cl)ccc1Cl)B1OC(=O)C(CC(=O)O)(CC(=O)O)O1` [IXAZOMIB CITRATE], for which the IC50 in experiment [3] is 3500 nM; in experiment [4], 31 nM.

In experiment [5], `c1cc(CN2CCCNCCNCCCNCC2)ccc1CN1CCCNCCNCCCNCC1` [PLERIXAFOR] gave an EC50 of 1 nM.

`Cc1c(C(=O)Nc2ccc(N3C[C@@H](C)O[C@@H](C)C3)nc2)cccc1-c1ccc(OC(F)(F)F)cc1` [SONIDEGIB PHOSPHATE]: the IC50 at Protein smoothened [6] turned out to be 1.3 nM; at Protein smoothened [7] it was 2.5 nM.

Values taken from ChEMBL document CHEMBL5620349, “Recent advance of small-molecule drugs for clinical treatment of multiple myeloma” (Eur J Med Chem, 2023).
